Measurements: US20130123287A1, “CONTROL AGENT FOR SOFT ROT AND CONTROL METHOD FOR THE SAME” (ISHIHARA SANGYO KAISHA, LTD., priority 2010, published 2013)

Key:
[1] = system: soft rot of Chinese cabbage; test: Test for controlling soft rot of Chinese cabbage, Example 4 / Comparative Example 4 (field, cultivar Ouraku 60); format: in vivo; conditions: 150 L/10 a sprayed onto planting holes before planting, 49 days after start
From the text: Frequency of the disease=[sigma(number of plants with the onset of the disease at each severity level*index of the onset of the disease)/(plants examined*4)]*100
Disease control value=[1-(frequency of the disease in the treated lot/frequency of the disease in the non-treated lot)]*100
• 0: No onset • 1: Onset in some of outer leaves (shippable) • 2: Onset in outer leaves and some of head leaves (by removing damaged parts, the resulting cabbage can be shipped as small cabbage but is ranked as grade B). • 3: Most of head leaves are inflicted with the onset of the disease or with severer damages (not shippable) • 4: Whole cabbage plant is inflicted with the onset of the disease and is dead.
442 g/lkresoxim-methyl (STROBY FLOWABLE [trade name], manufactured by BASF) was adjusted to 500 g ai/10a (0.5 g/m^2, 1131 ml Product/10a) as the amount of the active ingredient and to 150 L/10a as the volume of diluent water.
70% w/w thiophanate methyl (Topsin M WF [trade name], manufactured by Nippon Soda Co., Ltd.) was adjusted to 1000 g ai/10a (1 g/m^2, 1429 g Product/10a) as the amount of the active ingredient and to 150 L/10a as the volume of diluent water.
50% w/w boscalid (Cantus DF [trade name], manufactured by BASF) was adjusted to 500 g ai/10a (0.5 g/m^2; 1000 g Product/10a) as the amount of the active ingredient and to 150 L/10a as the volume of diluent water.
50% w/w procymidone (Sumilex WP [trade name], manufactured by Sumitomo Chemical Agro) was adjusted to 500 g ai/10a (0.5 g/m^2, 1000 g Product/10a) as the amount of the active ingredient and to 150 L/10a as the volume of diluent water.
400 g/l iprodione (Rovral 500 Aqua [trade name], manufactured by Bayer Crop Science Co., Ltd.) was adjusted to 500 g ai/10a (0.5 g/m^2, […] Product/10a) as the amount of the active ingredient and to 150 L/10a as the volume of diluent water.
200 g/l fludioxonil (Seibia FLOWABLE [trade name], manufactured by Syngenta Japan K.K.) was adjusted to 500 g ai/10a (0.5 g/m^2, 2500 ml Product/10a) as the amount of the active ingredient and to 150 L/10a as the volume of diluent water.
400 g/l mepanipyrim (Flupika PLOWABLE [trade name], manufactured by Nippon Soda Co., Ltd.) was adjusted to 500 g ai/10a (0.5 g/m^2, 1250 ml Product/10a) as the amount of the active ingredient and to 150 L/10a as the volume of diluent water.
After spreading an agricultural mulch-sheet and opening planting holes (diameter of about 5 cm) for permanent planting through the mulch-sheet, the spray solutions prepared as described above were sprayed onto the planting holes such that the amount of treated active ingredient of each spray solution was 0.5 g/m^2 (150 L per 10a), followed by air-drying; subsequently, seedlings of Chinese cabbage (cultivar: Ouraku 60) grown for 4 weeks in cell mold trays (128 holes/nursery box) were planted such that 30 seedlings were planted in each test lot having an area of 2.5 m^2 with two replications.
Preparation was performed by diluting a chemical solution (Agrimycin WP100 [trade name] manufactured by Pfizer) containing oxytetracycline at 1.5% and streptomycin sulfate salt at 18.8% with water to 1/1500.
In a field spread with the agricultural mulch-sheet, Chinese cabbage seedlings (cultivar: Ouraku 60) grown by the same method as in Example 4 were planted by the same method as in Example 4, for spraying the spray solution prepared above in (1) (at each spray volume of 300 L/10a) twice (28 days and 42 days after the planting of the seedlings) on the stems and leaves.
49 days after the start of the tests, all the plants in each lot were examined about the severity level of the disease to assess the frequency of the disease and the disease control value. Herein, the frequency of the disease and the disease control value were determined in the same manner as described above. Because soft rot is a disease with damages hardly controlled, herein, even a chemical at the level C determined by the tests of the effects can practically be used.

[2] = system: bacteria causing the soft rot (Erwinia carotovora); test: Inhibition test of growth of bacteria causing soft rot, Reference Test Example 4; format: cell-based; conditions: for formed colonies (growth state), grade: PSA medium, 27 degrees Celsius, 2 days; for inhibition of growth of Erwinia carotovora (in words): active ingredient concentration of 1,000 ppm
From the text: An inhibition test of the growth of bacteria causing the soft rot was done, when a control agent was directly applied to the bacteria causing the soft rot. A given volume of each pesticide of kresoxim-methyl (STROBY DF [trade name] manufactured by BASF), thiophanate methyl (Topsin M WP [trade name], manufactured by Nippon Soda Co., Ltd), boscalid (Cantus DF [trade name] manufactured by BASF), procymidone (Sumilex WP [trade name] manufactured by Sumitomo Chemical Agro Co., Ltd.) and streptomycin (Mycin Wettable powder [trade name] manufactured by Hokko Chemical Industry Co., Ltd.) was added together with a suspension of the bacteria causing the soft rot (Erwinia carotovora) to a preliminarily dissolved PSA culture medium (55 degrees Celsius) for subsequent thorough agitation, which was then spread on a plate for culturing at 27 degrees Celsius for 2 days, to examine the growth state. Subsequently, the formed colonies were examined according to the following three grades. • +: at the same level as the level of non-treated lot. Plus or minus: apparently less than the colonies of the non-treated lot. • −: almost no colonies observed.

[3] = system: bacteria causing the soft rot (Erwinia carotovora); test: Inhibition test of growth of bacteria causing soft rot, Reference Test Example 6; format: cell-based; conditions: for formed colonies (growth state), grade: PSA medium, 27 degrees Celsius, 3 days; for inhibition of growth of Erwinia carotovora (in words): active ingredient concentration of 1,000 ppm
From the text: (§1) An inhibition test of the growth of bacteria causing the soft rot was done, when a control agent was directly applied to the bacteria causing the soft rot. A given volume of each pesticide of fludioxonil (Seibia FL [trade name] manufactured by Syngenta Japan K.K.), iminoctadine albesilate salt (Bellkute WP [trade name], manufactured by Nippon Soda Co., Ltd.), iprodione (Rovral WP [trade name] manufactured by Bayer Crop Science Co., Ltd.), and streptomycin (Mycin Wettable powder [trade name] manufactured by Hokko Chemical Industry Co., Ltd.) was added together with a suspension of the bacteria causing the soft rot (Erwinia carotovora) to a preliminarily dissolved PSA culture medium (55 degrees Celsius) for subsequent thorough agitation, which was then spread on a plate for culturing at 27 degrees Celsius for 3 days, to examine the growth state. Subsequently, the formed colonies were examined according to the following three grades. • +: at the same level as the level of non-treated lot.
(§2) Plus or minus: apparently less than the colonies of the non-treated lot. • −: almost no colonies observed.

[4] = system: bacteria causing the soft rot (Erwinia carotovora); test: Inhibition test of growth of bacteria causing soft rot, Reference Test Example 5; format: cell-based; conditions: for formed colonies (growth state), grade: PSA medium, 27 degrees Celsius, 2 days
Experimental: as §1, with “mepanipyrim (Flupika” for “fludioxonil (Seibia”, “by” for “by Syngenta Japan K.K.), iminoctadine albesilate salt (Bellkute WP [trade name], manufactured by”, “Ltd.)” for “Ltd.), iprodione (Rovral WP [trade name] manufactured by Bayer Crop Science Co., Ltd.),”, “2” for “3”
as §2

Row | Structure (SMILES) | Determination of effect ([1]; 500 g ai/10 a) | formed colonies (growth state), grade ([2]; 100 ppm active ingredient) | formed colonies (growth state), grade ([2]; 500 ppm active ingredient) | formed colonies (growth state), grade ([2]; 1000 ppm active ingredient) | inhibition of growth of Erwinia carotovora (in words) [2] | formed colonies (growth state), grade ([3]; 100 ppm active ingredient) | formed colonies (growth state), grade ([3]; 500 ppm active ingredient) | formed colonies (growth state), grade ([3]; 1000 ppm active ingredient) | inhibition of growth of Erwinia carotovora (in words) [3] | formed colonies (growth state), grade ([4]; 100 ppm active ingredient) | formed colonies (growth state), grade ([4]; 500 ppm active ingredient) | formed colonies (growth state), grade ([4]; 1000 ppm active ingredient) | inhibition of growth of Erwinia carotovora (in words) ([4]; active ingredient concentration of 1,000 ppm) | Determination of effect ([1]; 1000 g ai/10 a)
1 | O=C(Nc1ccccc1-c1ccc(Cl)cc1)c1cccnc1Cl [Boscalid, 2-chloro-N-(4′-chlorobiphenyl-2-yl)nicotinamide] | C (C: Effective at low level (21 to 40 disease control value)) | +, + | +, + | +, + | never inhibited the growth |  |  |  |  |  |  |  |  | 
2 | N#Cc1c[nH]cc1-c1cccc2c1OC(F)(F)O2 [Fludioxonil, 4-(2,2-difluoro-1,3-benzodioxol-4-yl)pyrrole-3-carbonitrile] | C (C: Effective at low level (21 to 40 disease control value)) |  |  |  |  | +, + | +, + | +, + | never inhibited the growth |  |  |  |  | 
3 | CC(C)NC(=O)N1CC(=O)N(c2cc(Cl)cc(Cl)c2)C1=O [Iprodione, 3-(3,5-dichlorophenyl)-N-isopropyl-2,4-dioxoimidazolizine-1-carboxamide] | B (B: Effective (41 to 60 disease control value)) |  |  |  |  | +, + | +, + | +, + | never inhibited the growth |  |  |  |  | 
4 | CC#Cc1cc(C)nc(Nc2ccccc2)n1 [Mepanipyrim, N-(4-methyl-6-prop-1-ynylpyrimidin-2-yl)aniline] | B (B: Effective (41 to 60 disease control value)) |  |  |  |  |  |  |  |  | +, + | +, + | +, + | never inhibited the growth | 
5 | CC12CC1(C)C(=O)N(c1cc(Cl)cc(Cl)c1)C2=O (stereo not drawn) [Procymidone, N-(3,5-dichlorophenyl)-1,2-dimethylcyclopropane-1,2-dicarboximide] | A (A: Highly effective (61 or larger disease control value)) | +, + | +, + | +, + | never inhibited the growth |  |  |  |  |  |  |  |  | 
6 | COC(=O)NC(=S)Nc1ccccc1NC(=S)NC(=O)OC [Thiophanate methyl, dimethyl=4,4′-(o-phenylene)bis(3-thioallophanate)] |  | +, + | +, + | +, + | never inhibited the growth |  |  |  |  |  |  |  |  | B (B: Effective (41 to 60 disease control value))
